Measurements as given in patent US20160106747A1, “TREATING POSTOPERATIVE MECHANICAL STRESS WITH AN ECTOINE” (Bitop AG, priority 2008, published 2016).
“Also recorded” adds a separate entry of the source.

Legend:
[1] = tested on: Small intestine segments of rats; assay: Cold ischemic storage (18 h, 4° C.) of rat small intestine segments in POLYSOL with or without ectoine, then in vitro reperfusion; conditions: for LDH liberation: ectoine (5 mg/kg) added to POLYSOL, 18 h at 4° C.
Procedure: Small intestine segments of rats were removed under standard conditions and immediately irrigated with a cold common salt solution and subsequently with a POLYSOL solution (supplied by Doorzand Medical Innovations, Amsterdam/NL). The small intestine segments removed were kept ischemically in 50 ml of nutrient solution at 4° C. for 18 hours; in half of these cases ectoine (5 mg/kg) was added to the POLYSOL solution. Following this storage time at 4° C. reperfusion of the small intestine segments took place in vitro at 37° C. using a modified KHB medium (5% Dextran 78, 0.95% KHB, 0.37 g/L CaCl2, 2 g/L glucose, 0.6 g/L dexamethasone, 70 mg/L atropine and 0.21% sodium bicarbonate). For oxygen supply purposes a mixture of 95% O2 and 5% CO2 was used. The partial pressure of the oxygen was constantly kept at more than 500 mm/hg. When reperfusion had been completed all tissue samples were deep-frozen at −80° C. in liquid nitrogen and examined to ascertain their condition, the lactate dehydrogenase (LDH) liberation and nitrite liberation as a measure of NO. Generally speaking, the formation of NOx is an indicator for (oxidative) stress to which a tissue sample is subjected.

[2] = tested on: rats with TNBS-induced enteritis; assay: Enteritis induced in rats with trinitrobenzol sulfonic acid (TNBS), oral ectoine; type: in vivo
Procedure: For the purpose of closer investigation an animal model involving rats was prepared to induce enteritis by administering 10 mg/kg of trinitrobenzol sulfonic acid in 50% ethanol using a light ether anesthesia. Lesions developed which were examined macroscopically four days later. Ectoine was administered orally in various doses (30 to 300 mg/kg) for one week before the rats were given TNBS and four days thereafter.

Structure (SMILES): CC1=N[C@H](C(=O)O)CCN1 [ectoine, (4S)-2-methyl-1,4,5,6-tetrahydropyrimidine-4-carboxylic acid]
- LDH liberation ([1]; after 15 min reperfusion): 8.8+/−3.42 U/I
- LDH liberation ([1]; after 30 min reperfusion): 25.4+/−8.2 U/I
- NOx− formation ([1]; ectoine-doped POLYSOL samples after reperfusion): 0.325 ± 1.05 mmol/L
- condition of the microvilli (microscopic examination) ([1]; tissue samples after 30-minute reperfusion, compared with samples in POLYSOL only): much better condition; also recorded: considerably improved condition of the microvilli
- extent of the lesions (macroscopic examination) ([2]; TNBS 10 mg/kg in 50% ethanol, ectoine oral 30 to 300 mg/kg for one week before TNBS and four days thereafter, lesions examined four days later): capable of alleviating the extent of the lesions
- histopathological examination of the large intestine ([2]; TNBS enteritis): protective effect of ectoine could be confirmed
- glutathione level in the large intestine ([2]; TNBS enteritis, oral ectoine): caused the glutathione level in the large intestine to go down
- myeloperoxidase activity ([2]; TNBS enteritis, oral ectoine): prevented changes of the myeloperoxidase activity
- level of mediators (IKAM-1, DNFα, IL-1β, IL-10, LTB4, PGE2) ([2]; in the blood and in the tissue of the large intestine, TNBS enteritis): prevented changes of the level of various mediators
- dose giving the maximum effect on lesions ([2]; oral, doses of 30 to 300 mg/kg tested): 100 mg/kg
- effect compared with reference active agent sulfasalazine ([2]; sulfasalazine 300 mg/kg as reference, TNBS enteritis): comparable to that of sulfasalazine
